Measurements from patent US6335325B1, “Acylated 4-aminopyridine derivatives as pesticides and fungicides” (Bayer Aktiengesellschaft, priority 1997, dated 2002).

How the values were obtained:
[1] = tested on: caterpillars of the owlet moth (Spodoptera exigua); test: Spodoptera exigua Test; assay type: in vivo; conditions: active compound concentration of 0.0008%; after 6 days; dipped cabbage leaves (Brassica oleracea)
Protocol: Solvent: 7 parts by weight of dimethylformamide
Emulsifier: 1 part by weight of alkylaryl polyglycol ether
After the desired period of time, the kill in % is determined. 100% means that all caterpillars have been killed; 0% means that none of the caterpillars have been killed.

[2] = logP determination by HPLC (EEC Directive 79/831 Annex V. A8); assay type: physicochemical; conditions: pH 2; pH2; HPLC gradient method, acetonitrile/0.1% strength aqueous phosphoric acid
Protocol: [logP=The logP values were determined in accordance with EEC Directive 79/831 Annex V. A8 by HPLC (gradient method, acetonitrile/0.1% strength aqueous phosphoric acid]

Structure (SMILES): CCc1nccc(N(C(=O)Cc2ccc(Oc3ccc(C(N)=S)cc3)cc2)C(=O)OC(C)C)c1Cl [Preparation Example 1, N-(3-chloro-2-ethyl-pyridin-4-yl)-N-isopropoxycarbonyl-4-(4-aminothiocarbonylphenoxy)-phenylacetamide]
- kill in % [1]: 100%
- chromatographic logP [2]: 3.71
